# Data reported in patent US11827917B1, “Methods for the conversion of fermentable sugars to ethanol” (Colorado State University Research Foundation, priority 2020, dated 2023).
# Several values for one entry are separate records, joined by “and”; a condition that tells them apart may be missing. Equal values may be shown once.
# How the values were obtained:
# S. cerevisiae JAY 270 = test: 1-L batch bioreactor fermentation, time course; assay type: cell-based, Saccharomyces cerevisiae; details: for Biomass Yield / Biomass yield % change vs. control / EtOH yield / EtOH yield % change vs. control / Glycerol yield / Glycerol yield % change vs. control: 1-L bioreactor, 24 hours; for Biomass yield, lower in comparison to control: addition in the fermentation medium
# Description: Yeast strain: S. cerevisiae JAY 270, as in Example 1. Inocula for bioreactor experiments with PheOH and TrpOH S. cerevisiae JAY 270 were prepared by culturing the yeast in 100 mL of YPD medium in 200-mL serum bottles overnight in a shaker at 30° C. and 200 rpm. The cells were collected by centrifuging 10 min at 4000×g and 4° C. The cell pellet was washed twice using sterile 0.8% (w/v) NaCl solution. Finally, the cell pellet was resuspended in about 15 mL of 0.8% (w/v) NaCl.
# Procedure: Fermentations were carried out in two Eppendorf BioFlo 115 bioreactors containing 1 L sterile YNB medium with 20 g/L glucose (Difco Yeast Nitrogen Base, catalog number 239210). The prepared yeast cells were inoculated in the bioreactor vessels to obtain an initial yeast cell concentration of OD600≈0.1. The fermentation was conducted at pH 5.5, 30° C., and 200 rpm agitation. Ultrapure N2 was sparged at 0.1 standard liters per minute in the bioreactor vessels to maintain anaerobic conditions. Samples were collected at different time points to monitor cell, glucose, and ethanol concentrations.
# (§1) For experiments with added PheOH, 2.0 mL of PheOH stock solution was added to one of the two vessels when the OD600 reached 1.0 to achieve a final concentration of 0.2% (w/v). In the serum bottle tests, TrpOH had stronger effects on yeast cell growth than PheOH at the same tested concentration. A study in serum bottles was then conducted to determine the TrpOH concentration that would have a similar growth inhibitory effect. […] Thus, for bioreactor experiments on the effects of TrpOH, the TrpOH was added at 0.12%. Since TrpOH was dissolved in DMSO, the same concentration of DMSO was added in the control bioreactor at the same time. All other bioreactor conditions were the same as in the PheOH test.
# Samples were collected from the bioreactors every hour post-addition for 6 h, and again after 24 hours of cultivation. Each experiment was repeated in triplicate.
# yeast = test: Yeast growth and ethanol yield in serum bottles, low/high cell inoculum (Tables 5, 6); assay type: cell-based
# S. cerevisiae JAY270 = test: Immobilized yeast cells, batch cultivation on D. armatus hydrolysate; assay type: cell-based, Saccharomyces cerevisiae; details: 0.2%; for EtOH yield / EtOH yield % Δ from control: 24 hours
# Description: S. cerevisae JAY270 cells were precultured in 600 mL YPD medium at 30° C. overnight and collected by centrifuging at 3000×g for 10 min at 4° C. The cell pellets were washed twice by resuspending in 0.8% NaCl and centrifuged to remove any medium residue. Then, the cells were resuspended in 50 mL 0.8% NaCl and mixed with the 4% sodium alginate solution to obtain the final sodium alginate concentration of 3%. The mixture was dropped with a syringe aseptically into sterilized 2% CaCl2·2H2O on ice to form spheres (“beads”). The cell-immobilized beads were kept in the CaCl2) solution at 4° C. until use.
# The immobilized cells were incubated in YPD medium with 20 g/L glucose overnight at 30° C. to activate the immobilized cells. For each replicate test, 25 mL of D. armatus hydrolysate obtained from NREL was mixed with 15 mL beads and transferred into a 50 mL serum bottle. All serum bottles were incubated in a shaker at 150 rpm and 30° C. Samples were collected at 0, 12, and 24 h. The concentrations of sugars and ethanol in the samples were analyzed by HPLC.
# To test the effects of yield-increasing chemicals on the immobilized cells fermentation, 0.2% PheOH or TrpOH was added in the D. armatus hydrolysate obtained from NREL in serum bottles respectively (batch growth). PheOH was directly added into the hydrolysate medium. TrpOH was dissolved in DMSO at 20%, then added into the hydrolysate to achieve the desired final concentration. The same amount of DMSO was added into the control cultivations. S. cerevisae JAY270 cells were immobilized in calcium alginate. The immobilized cell beads were incubated in YPD medium overnight at 30° C. to activate the immobilized cells. Twenty-five mL of D. armatus hydrolysate was mixed with 15 mL immobilized cell beads (three biological replicates in each treatment) and incubated at 30° C. The ethanol yield was calculated at 24 hours. The content of glucose and ethanol in samples was analyzed using HPLC.
# yeast cell growth = test: Serum-bottle study of the TrpOH concentration with similar growth inhibition as PheOH; assay type: cell-based; details: serum bottles, data not shown
# Description: as §1
# [1] = 0.05%, high cell inoculum (OD600 at 0 h 0.85), 48 h test
# [2] = 0.05%, low cell inoculum (OD600 at 0 h 0.30), 48 h test
# [3] = 0.1%, high cell inoculum (OD600 at 0 h 0.85), 48 h test
# [4] = 0.1%, low cell inoculum (OD600 at 0 h 0.30), 48 h test
# [5] = 0.2%, high cell inoculum (OD600 at 0 h 0.85), 48 h test
# [6] = 0.2%, low cell inoculum (OD600 at 0 h 0.30), 48 h test
# [7] = 0.05%, high cell inoculum (OD600 at 0 h 1.96), 26 h test
# [8] = 0.05%, low cell inoculum (OD600 at 0 h 0.70), 26 h test
# [9] = 0.1%, high cell inoculum (OD600 at 0 h 1.96), 26 h test
# [10] = 0.1%, low cell inoculum (OD600 at 0 h 0.70), 26 h test
# [11] = 0.2%, high cell inoculum (OD600 at 0 h 1.96), 26 h test
# [12] = 0.2%, low cell inoculum (OD600 at 0 h 0.70), 26 h test
compound,measurement,setting,value
"OCCc1c[nH]c2ccccc12 [TrpOH, tryptophol]",Biomass Yield,S. cerevisiae JAY 270; TrpOH 0.12% (w/v),0.063 ± 0.008 g/g
same,Biomass yield % change vs. control,S. cerevisiae JAY 270; TrpOH 0.12% (w/v),−28 ± 5 %
same,EtOH yield,S. cerevisiae JAY 270; TrpOH 0.12% (w/v),0.420 ± 0.012 g/g
same,EtOH yield % change vs. control,S. cerevisiae JAY 270; TrpOH 0.12% (w/v),6.5 ± 3.1 %
same,Glycerol yield,S. cerevisiae JAY 270; TrpOH 0.12% (w/v),0.070 ± 0.004 g/g
same,Glycerol yield % change vs. control,S. cerevisiae JAY 270; TrpOH 0.12% (w/v),−17 ± 2 %
same,EtOH yield % change vs. control,"S. cerevisiae JAY 270; TrpOH 0.12% (w/v), listed as tryptophol",10%
same,"Final cell concentration, lower than control","S. cerevisiae JAY 270; TrpOH 0.12%, 24 h",about 22%
same,"Glycerol concentration, lower than control","S. cerevisiae JAY 270; TrpOH 0.12%, 24 h",17%
same,"Final cell concentration, lower than control","S. cerevisiae JAY 270; TrpOH 0.12%, 24 h, listed as tryptophol",22%
same,"Biomass yield, lower in comparison to control",S. cerevisiae JAY 270,about 20%
same,OD600 at 48 h,"yeast; 0.05%, high cell inoculum (OD600 at 0 h 0.85)",2.47
same,EtOH yield,yeast; [1],0.52 g/g
same,EtOH yield % Δ from control,yeast; [1],4.6%
same,OD600 at 48 h,"yeast; 0.05%, low cell inoculum (OD600 at 0 h 0.30)",1.17
same,EtOH yield,yeast; [2],0.50 g/g
same,EtOH yield % Δ from control,yeast; [2],5.7%
same,OD600 at 48 h,"yeast; 0.1%, high cell inoculum (OD600 at 0 h 0.85)",1.87
same,EtOH yield,yeast; [3],0.54 g/g
same,EtOH yield % Δ from control,yeast; [3],7.6%
same,OD600 at 48 h,"yeast; 0.1%, low cell inoculum (OD600 at 0 h 0.30)",0.79
same,EtOH yield,yeast; [4],0.50 g/g
same,EtOH yield % Δ from control,yeast; [4],2.2%
same,OD600 at 48 h,"yeast; 0.2%, high cell inoculum (OD600 at 0 h 0.85)",1.40
same,EtOH yield,yeast; [5],0.51 g/g
same,EtOH yield % Δ from control,yeast; [5],1.9%
same,OD600 at 48 h,"yeast; 0.2%, low cell inoculum (OD600 at 0 h 0.30)",0.51
same,EtOH yield,yeast; [6],0.52 g/g
same,EtOH yield % Δ from control,yeast; [6],5.9%
same,Ethanol yield higher than the value for free cell fermentation of D. armatus hydrolysate,S. cerevisiae JAY270,about 20%
same,Ethanol yield,"S. cerevisiae JAY270; D. armatus hydrolysate, batch",0.49 g ethanol/g sugar
same,EtOH yield,"S. cerevisiae JAY270; D. armatus hydrolysate, batch",0.49 g/g
same,EtOH yield % Δ from control,"S. cerevisiae JAY270; D. armatus hydrolysate, batch",11.4% and 11.42%
same,Concentration with similar growth inhibition as PheOH at 16.4 mM,yeast cell growth,7.5 mM
same,Concentration with similar growth inhibition as PheOH at 0.2% (w/v),yeast cell growth,0.12 % (w/v)
"OCCc1ccccc1 [PheOH, 2-phenylethanol]","Glycerol concentration, decrease",S. cerevisiae JAY 270; PheOH 0.2%,21%
same,Biomass Yield,S. cerevisiae JAY 270; PheOH 0.2% (w/v),0.063 ± 0.008 g/g
same,Biomass yield % change vs. control,S. cerevisiae JAY 270; PheOH 0.2% (w/v),−23 ± 5 %
same,EtOH yield,S. cerevisiae JAY 270; PheOH 0.2% (w/v),0.435 ± 0.003 g/g
same,EtOH yield % change vs. control,S. cerevisiae JAY 270; PheOH 0.2% (w/v),5.3 ± 0.8 %
same,Glycerol yield,S. cerevisiae JAY 270; PheOH 0.2% (w/v),0.071 ± 0.001 g/g
same,Glycerol yield % change vs. control,S. cerevisiae JAY 270; PheOH 0.2% (w/v),−20 ± 2 %
same,EtOH yield % change vs. control,"S. cerevisiae JAY 270; PheOH 0.2% (w/v), listed as 2-phenylethanol",6%
same,"Final cell concentration, lower than control","S. cerevisiae JAY 270; PheOH 0.2%, 24 h",22%
same,Glucose remaining,"S. cerevisiae JAY 270; PheOH 0.2%, after 12 h (control completely consumed)",about 2 g/L
same,"Biomass yield, lower in comparison to control",S. cerevisiae JAY 270,about 20%
same,OD600 at 26 h,"yeast; 0.05%, high cell inoculum (OD600 at 0 h 1.96)",4.24
same,EtOH yield,yeast; [7],0.47 g/g
same,EtOH yield % Δ from control,yeast; [7],3.1%
same,OD600 at 26 h,"yeast; 0.05%, low cell inoculum (OD600 at 0 h 0.70)",3.28
same,EtOH yield,yeast; [8],0.47 g/g
same,EtOH yield % Δ from control,yeast; [8],−1.9%
same,OD600 at 26 h,"yeast; 0.1%, high cell inoculum (OD600 at 0 h 1.96)",3.99
same,EtOH yield,yeast; [9],0.47 g/g
same,EtOH yield % Δ from control,yeast; [9],1.7%
same,OD600 at 26 h,"yeast; 0.1%, low cell inoculum (OD600 at 0 h 0.70)",2.83
same,EtOH yield,yeast; [10],0.45 g/g
same,EtOH yield % Δ from control,yeast; [10],−4.6%
same,OD600 at 26 h,"yeast; 0.2%, high cell inoculum (OD600 at 0 h 1.96)",3.53
same,EtOH yield,yeast; [11],0.48 g/g
same,EtOH yield % Δ from control,yeast; [11],4.9%
same,OD600 at 26 h,"yeast; 0.2%, low cell inoculum (OD600 at 0 h 0.70)",2.41
same,EtOH yield,yeast; [12],0.47 g/g
same,EtOH yield % Δ from control,yeast; [12],−1.1%
same,EtOH yield,"S. cerevisiae JAY270; D. armatus hydrolysate, batch",0.46 g/g
same,EtOH yield % Δ from control,"S. cerevisiae JAY270; D. armatus hydrolysate, batch",1.54%
